Assay results from PubChem BioAssay AID1745844 (Carcinogenic Potency Database (CPDB), 2022).
Several values for one entry are separate records, joined by “and”; a condition that tells them apart may be missing. Identical values can stand only once.

Test system: rodent lifetime carcinogenesis bioassay, tumor incidence TD50
Experiment: chronic cancer bioassays in animals – CPDB, compiled studies (AID 1745844)
Conditions: rat, inhaled

Compound: C=CCl
- TD50 (strain Sprague-Dawley, males, site: extrahepatic tissue, lesion: angiosarcoma, dosed 25 weeks, study length 115 weeks): 468 mg/kg/day
- TD50 (strain Sprague-Dawley, males, site: extrahepatic tissue, lesion: angiosarcoma, dosed 52 weeks, study length 123 weeks): 63 mg/kg/day
- TD50 (strain Sprague-Dawley, males, site: extrahepatic tissue, lesion: angiosarcoma, dosed 52 weeks, study length 131 weeks): 14900 mg/kg/day
- TD50 (strain Sprague-Dawley, males, site: extrahepatic tissue, lesion: angiosarcoma, dosed 52 weeks, study length 139 weeks): 11.7 mg/kg/day
- TD50 (strain Sprague-Dawley, males, site: kidney, lesion: nephroblastoma, dosed 25 weeks, study length 139 weeks): 1940 mg/kg/day
- TD50 (strain Sprague-Dawley, males, site: kidney, lesion: nephroblastoma, dosed 52 weeks, study length 123 weeks): 37.8 mg/kg/day
- TD50 (strain Sprague-Dawley, males, site: kidney, lesion: nephroblastoma, dosed 52 weeks, study length 131 weeks): 2960 mg/kg/day
- TD50 (strain Sprague-Dawley, males, site: kidney, lesion: nephroblastoma, dosed 52 weeks, study length 139 weeks): 28.9 mg/kg/day
- TD50 (strain Sprague-Dawley, males, site: liver, lesion: angioma, dosed 25 weeks, study length 115 weeks): 580 mg/kg/day
- TD50 (strain Sprague-Dawley, males, site: liver, lesion: angioma, dosed 25 weeks, study length 139 weeks): 1030 mg/kg/day
- TD50 (strain Sprague-Dawley, males, site: liver, lesion: angioma, dosed 52 weeks, study length 123 weeks): 106 mg/kg/day and 54.3 mg/kg/day
- TD50 (strain Sprague-Dawley, males, site: liver, lesion: angiosarcoma, dosed 25 weeks, study length 115 weeks): 871 mg/kg/day
- TD50 (strain Sprague-Dawley, males, site: liver, lesion: angiosarcoma, dosed 52 weeks, study length 123 weeks): 76.7 mg/kg/day and 62.4 mg/kg/day
- TD50 (strain Sprague-Dawley, males, site: liver, lesion: angiosarcoma, dosed 52 weeks, study length 130 weeks): 90 mg/kg/day
- TD50 (strain Sprague-Dawley, males, site: liver, lesion: angiosarcoma, dosed 52 weeks, study length 131 weeks): 875 mg/kg/day
- TD50 (strain Sprague-Dawley, males, site: liver, lesion: angiosarcoma, dosed 52 weeks, study length 139 weeks): 75.8 mg/kg/day
- TD50 (strain Sprague-Dawley, males, site: liver, lesion: hepatocellular carcinoma, dosed 52 weeks, study length 130 weeks): 40.8 mg/kg/day
- TD50 (strain Sprague-Dawley, males, site: liver, lesion: hepatoma, dosed 52 weeks, study length 123 weeks): 152 mg/kg/day
- TD50 (strain Sprague-Dawley, males, site: liver, lesion: hepatoma, dosed 52 weeks, study length 131 weeks): 13400 mg/kg/day
- TD50 (strain Sprague-Dawley, males, site: liver, lesion: several types, types named in the paper, dosed 52 weeks, study length 130 weeks): 294 mg/kg/day
- TD50 (strain Sprague-Dawley, males, site: pituitary gland, lesion: one or several types, types not named, dosed 52 weeks, study length 130 weeks): 138 mg/kg/day
- TD50 (strain Wistar, females, site: Zymbal's gland, lesion: squamous-cell carcinoma, dosed 52 weeks, study length 52 weeks): 857 mg/kg/day
- TD50 (strain Wistar, females, site: liver, lesion: angiosarcoma, dosed 52 weeks, study length 52 weeks): 209 mg/kg/day
- TD50 (strain Wistar, females, site: liver, lesion: hepatocellular carcinoma, dosed 52 weeks, study length 52 weeks): 1810 mg/kg/day
- TD50 (strain Wistar, females, site: liver, lesion: neoplastic nodule, dosed 52 weeks, study length 52 weeks): 1810 mg/kg/day
- TD50 (strain Wistar, females, site: lung, lesion: papillary adenoma, dosed 52 weeks, study length 52 weeks): 1810 mg/kg/day
- TD50 (strain Wistar, females, site: nasal cavity, lesion: olfactory epithelial carcinoma, dosed 52 weeks, study length 52 weeks): 276 mg/kg/day
- TD50 (strain Wistar, males, site: Zymbal's gland, lesion: carcinoma, dosed 52 weeks, study length 125 weeks): 3540 mg/kg/day
- TD50 (strain Wistar, males, site: Zymbal's gland, lesion: squamous-cell carcinoma, dosed 52 weeks, study length 52 weeks): 330 mg/kg/day
- TD50 (strain Wistar, males, site: any site (literature study), lesion: several types, types named in the paper, dosed 52 weeks, study length 78 weeks): 5.44 mg/kg/day
- TD50 (strain Wistar, males, site: any site (literature study), lesion: several types, types named in the paper, dosed 52 weeks, study length 125 weeks): 1130 mg/kg/day
- TD50 (strain Wistar, males, site: brain, lesion: neuroblastoma, dosed 52 weeks, study length 125 weeks): 4140 mg/kg/day
- TD50 (strain Wistar, males, site: brain, lesion: one or several types, types not named, dosed 52 weeks, study length 78 weeks): 5820 mg/kg/day
- TD50 (strain Wistar, males, site: extrahepatic tissue, lesion: angioma, dosed 52 weeks, study length 125 weeks): 72700 mg/kg/day
- TD50 (strain Wistar, males, site: extrahepatic tissue, lesion: angioma, dosed 52 weeks, study length 127 weeks): 0.37 mg/kg/day
- TD50 (strain Wistar, males, site: extrahepatic tissue, lesion: angiosarcoma, dosed 52 weeks, study length 125 weeks): 8490 mg/kg/day
- TD50 (strain Wistar, males, site: extrahepatic tissue, lesion: angiosarcoma, dosed 52 weeks, study length 127 weeks): 1.05 mg/kg/day
- TD50 (strain Wistar, males, site: kidney, lesion: nephroblastoma, dosed 52 weeks, study length 125 weeks): 4510 mg/kg/day
- TD50 (strain Wistar, males, site: liver, lesion: angioma, dosed 52 weeks, study length 125 weeks): 3620 mg/kg/day
- TD50 (strain Wistar, males, site: liver, lesion: angioma, dosed 52 weeks, study length 127 weeks): 0.654 mg/kg/day
- TD50 (strain Wistar, males, site: liver, lesion: angiosarcoma, dosed 52 weeks, study length 52 weeks): 330 mg/kg/day
- TD50 (strain Wistar, males, site: liver, lesion: angiosarcoma, dosed 52 weeks, study length 78 weeks): 10.2 mg/kg/day
- TD50 (strain Wistar, males, site: liver, lesion: angiosarcoma, dosed 52 weeks, study length 125 weeks): 518 mg/kg/day
- TD50 (strain Wistar, males, site: liver, lesion: hepatocellular carcinoma, dosed 52 weeks, study length 52 weeks): 1140 mg/kg/day
- TD50 (strain Wistar, males, site: liver, lesion: hepatoma, dosed 52 weeks, study length 125 weeks): 4860 mg/kg/day
- TD50 (strain Wistar, males, site: liver, lesion: hepatoma, dosed 52 weeks, study length 127 weeks): 0.728 mg/kg/day
- TD50 (strain Wistar, males, site: lung, lesion: angiosarcoma, dosed 52 weeks, study length 78 weeks): 193 mg/kg/day
- TD50 (strain Wistar, males, site: lung, lesion: one or several types, types not named, dosed 52 weeks, study length 78 weeks): 867 mg/kg/day
- TD50 (strain Wistar, males, site: nasal cavity, lesion: olfactory epithelial carcinoma, dosed 52 weeks, study length 52 weeks): 533 mg/kg/day
- carcinogen call (strain Wistar, males, site: nose, lesion: one or several types, types not named, dosed 52 weeks, study length 78 weeks): positive
- TD50 (strain Wistar, males, site: skin, lesion: one or several types, types not named, dosed 52 weeks, study length 78 weeks): 5820 mg/kg/day
- carcinogen call (strain Wistar, males, site: testis, lesion: one or several types, types not named, dosed 52 weeks, study length 78 weeks): positive
